Like-named read-outs stand apart in the source and are kept apart here.
Experiments:
P. aeruginosa ATCC 27853 [1] = test: Time-kill studies; type: cell-based, Pseudomonas aeruginosa; conditions: highest concentration tested
Protocol: Time-kill studies were carried out as described previously with the following changes.

P. aeruginosa ATCC 27853 [2] = test: MIC / antibiotic potentiation assay, wild-type strain; conditions: for MIC: Pseudomonas aeruginosa
CYP3A4 = CYP3A4 (Homo sapiens, UniProt P08684); test: CYP inhibition; type: in vitro ADME; conditions: read-out: CYP Inhibition IC50, CYP 3A4
[3] = system: 300 P. aeruginosa clinical isolates from 63 countries; test: Susceptibility study, IHMA panel; type: cell-based, Pseudomonas aeruginosa; conditions: for Cumulative Susceptibility % Strains at 1: concentration 1 µg/ml; for Cumulative Susceptibility % Strains at 2: concentration 2 µg/ml; for Cumulative Susceptibility % Strains at 4: concentration 4 µg/ml; for Cumulative Susceptibility % Strains at 8: concentration 8 µg/ml; for Cumulative Susceptibility % Strains at 16: concentration 16 µg/ml; for Cumulative Susceptibility % Strains at 32: concentration 32 µg/ml; for Cumulative Susceptibility % Strains at >32: concentration >32 µg/ml
From the text: First, 209 clinical isolates of P. aeruginosa were collected, unbiased of susceptibility, from three US hospitals by Micromyx (now part of Microbiologics; Kalamazoo, MI, USA). IHMA (Monthey, Switzerland) collected 300 P. aeruginosa clinical isolates, also unbiased of susceptibility, from the following 63 countries: Argentina, Australia, Belgium, Brazil, Canada, Chile, Colombia, Costa Rica, Croatia, Czech Republic, Denmark, Dominican Republic, Ecuador, France, Georgia, Germany, Greece, Guatemala, Hong Kong, Hungary, India, Ireland, Israel, Italy, Japan, Jordan, Kazakhstan, Kenya, South Korea, Kuwait, Latvia, Lebanon, Lithuania, Malaysia, Mexico, Morocco, Netherlands, New Zealand, Nigeria, Panama, Philippines, Poland, Portugal, Puerto Rico, Qatar, Romania, Russia, Saudi Arabia, Serbia, Slovenia, South Africa, Spain, Sweden, Switzerland, Taiwan, Thailand, Tunisia, Turkey, Ukraine, United Kingdom, United States, Venezuela, and Vietnam. Isolates came from the following types of infection: genitourinary (urine), gastrointestinal (stomach), gastrointestinal (pancreas), […] (wound), respiratory (sputum), […] (blood), respiratory (bronchoalveolar lavage), […] (burn), respiratory (endotracheal aspirate), bodily fluids (abscess/pus), […] (impetiginous lesions), gastrointestinal (abscess) and respiratory (bronchial brushing). CF patients were not excluded.
(§1) MIC assays were performed as described previously.

P. aeruginosa ATCC 27853 [4] = type: cell-based, Pseudomonas aeruginosa
Protocol: All resistant colonies were verified by determining the MIC to TXA09155. […] This two-component system regulates the expression of more than 100 genes in P. aeruginosa, including genes that code for efflux components (mexX), and plays a role in the resistance to cationic antimicrobial peptides and aminoglycoside antibiotics.
The frequency of resistance studies was carried out as described previously.

P. aeruginosa ATCC 27853 [5] = test: Intracellular ATP levels; type: cell-based, Pseudomonas aeruginosa; conditions: 1/4th and 1/8th MIC, 3 h
Protocol: P. aeruginosa intracellular ATP levels were determined as described previously using an ATP determination kit (catalog number A22066; Thermo Fisher Scientific, Waltham, MA, USA). […] After treatment, the cells were lysed in chloroform, which was subsequently removed by boiling at 80 °C. The persistent ATP from cell lysate was measured in a 96-well black flat-bottom plate and plotted as relative luminescence units. […] Error bars represent the standard deviation of triplicates.

[6] = system: P. aeruginosa ATCC 27853 efflux of EtBr; test: Ethidium bromide (EtBr) efflux inhibition assay; type: cell-based, Pseudomonas aeruginosa; conditions: fluorescence, after glucose activation
Protocol: The ability of TXA09155 to inhibit efflux in P. aeruginosa was studied using two quantitative assays to establish efflux inhibition as the MOA. In the first assay, the efflux of ethidium bromide (EtBr) by P. aeruginosa cells is studied in the presence of different concentrations of TXA09155. Wild-type P. aeruginosa ATCC 27853 cells were incubated with EtBr to allow for the intracellular accumulation and were treated with CCCP to inhibit active efflux. […] Following activation by the addition of glucose, the efflux of EtBr can be followed in real time as a decrease in fluorescence based on the concentration of TXA09155.
Efflux of EtBr from P. aeruginosa in the presence of TXA09155 was carried out as described previously.

[7] = system: P. aeruginosa DA7232 (gyrA-T83I, parC-S80L); test: MIC / levofloxacin potentiation, fluoroquinolone-resistant strain; type: cell-based, Pseudomonas aeruginosa
From the text: P. aeruginosa ATCC 27853 was obtained from the American Type Culture Collection (ATCC; Manassas, VA, USA). P. aeruginosa multidrug-resistant isolates were obtained from the CDC and FDA Antibiotic Resistance Isolate Bank (Atlanta, GA, USA). P. aeruginosa DA7232 (gyrA-T83I, parC-S80L) was a kind gift from Prof. Dan I. Andersson, Uppsala University, Uppsala, Sweden, and has been characterized elsewhere. P. aeruginosa strains K767 (WT), K1455 (mexAB-oprM overexpressed), K2415 (mexXY-oprM overexpressed), and K3698 (oprM∆) were obtained from Prof. Keith Poole, Queen’s University, Kingston, Ontario, Canada and have been characterized elsewhere. Bacterial cells were grown in cation-adjusted Mueller Hinton (CAMH) media, brain heart infusion broth (BHI), or tryptic soy agar (TSA) plates were all obtained from Becton, Dickinson, and Company (BD; Franklin Lakes, NJ, USA). Aztreonam, ceftazidime, moxifloxacin, levofloxacin, minocycline, tigecycline, chloramphenicol, nitrocefin, and imipenem were purchased from TOKU-E (Bellingham, WA, USA). Azithromycin was purchased from Tokyo Chemical Industry (Portland, OR, USA). Cotrimoxazole was purchased from Toronto Research Chemicals (Toronto, ON, Canada). Doxycycline and polymyxin B were purchased from Sigma-Aldrich (St. Louis, MO, USA). Ethidium bromide (EtBr) and glucose were purchased from VWR (Radnor, PA, USA). MC-04,124 and TXA01182 were synthesized at TAXIS Pharmaceuticals. Carbonyl cyanide 3-chlorophenylhydrazone (CCCP) was purchased from Enzo Life Sciences (Farmingdale, NY, USA). DiOC2 (3) and propidium iodide were obtained from Thermo Fisher Scientific (Waltham, MA, USA).
as §1

[8] = TXA09155 fixed […], 300 isolates
[9] = n: 300, in combination TXA09155 fixed […]

Sequence of CYP3A4 (P08684 whole entry): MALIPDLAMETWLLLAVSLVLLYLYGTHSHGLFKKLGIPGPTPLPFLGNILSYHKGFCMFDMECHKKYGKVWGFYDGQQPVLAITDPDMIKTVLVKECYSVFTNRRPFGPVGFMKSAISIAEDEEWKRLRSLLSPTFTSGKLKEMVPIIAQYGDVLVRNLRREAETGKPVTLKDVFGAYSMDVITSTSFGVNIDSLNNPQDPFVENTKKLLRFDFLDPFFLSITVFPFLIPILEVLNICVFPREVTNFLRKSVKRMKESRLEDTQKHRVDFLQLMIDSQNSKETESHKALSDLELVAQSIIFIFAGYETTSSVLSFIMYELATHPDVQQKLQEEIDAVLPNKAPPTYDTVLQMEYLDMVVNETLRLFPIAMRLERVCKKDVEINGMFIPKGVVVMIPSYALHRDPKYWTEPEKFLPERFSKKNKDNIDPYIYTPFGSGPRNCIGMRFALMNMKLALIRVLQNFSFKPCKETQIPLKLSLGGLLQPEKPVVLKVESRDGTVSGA

`Cl.NC[C@@H]1CN[C@H](CNC(=O)c2cc3ccc(-c4ccc(F)cc4)cc3[nH]2)C1` [TXA09155, N-(((2S,4R)-4-(aminomethyl)pyrrolidine-2-yl)methyl)-6-(4-fluorophenyl)-1H-indole-2-carboxamide hydrochloride salt] was tested. Which “effect on growth, compound alone” value (P. aeruginosa ATCC 27853 [1]) did it give?
The value was “did not affect the growth”.

What about the MIC (P. aeruginosa ATCC 27853 [2]; ATCC27853) of the same molecule?
Its MIC is 50 mg/L.

What about the “lowest active concentration for TXA09155” value (P. aeruginosa ATCC 27853 [2]; antibiotic potentiation) of the same molecule?
Its value is 6.25 µg/mL.

What about the IC50 (CYP3A4) of the same molecule?
The IC50 was 28.5 µM.

What about the “levofloxacin MIC50 in presence of TXA09155” value [3, 8] of the same molecule?
The value was 0.06 mg/L.

And the “levofloxacin MIC90 in presence of TXA09155” value [3, 8]?
Its value is 8 mg/L.

And the “Cumulative Susceptibility % Strains at 1” value ([3]; n: 300)?
Its value is 2%.

What about the “Cumulative Susceptibility % Strains at 2” value ([3]; n: 300) of the same molecule?
The value was 6%.

And the “Cumulative Susceptibility % Strains at 4” value ([3]; n: 300)?
The value was 7%.

What about the “Cumulative Susceptibility % Strains at 8” value ([3]; n: 300) of the same molecule?
Its value is 7%.

What about the “Cumulative Susceptibility % Strains at 16” value ([3]; n: 300) of the same molecule?
The value was 9%.

What about the “Cumulative Susceptibility % Strains at 32” value ([3]; n: 300) of the same molecule?
Its value is 13%.

And the “Cumulative Susceptibility % Strains at >32” value ([3]; n: 300)?
The value was 100%.

And the “fold reduction of the FoR to levofloxacin” value (P. aeruginosa ATCC 27853 [4])?
The value was “more than 149 fold”.

What about the “FoR, resistance to TXA09155 alone (1×-MIC)” value (P. aeruginosa ATCC 27853 [4]; 50 μg/mL) of the same molecule?
The value was 1.9 × 10^−3.

And the “FoR, resistance to TXA09155 alone (4×-MIC)” value (P. aeruginosa ATCC 27853 [4]; 200 μg/mL)?
Its value is 1.40 × 10^−6.

What about the ATP depletion (P. aeruginosa ATCC 27853 [5]) of the same molecule?
Its ATP depletion is “did not result in ATP depletion”.

What about the “inhibition of EtBr efflux” value [6] of the same molecule?
Its value is “concentration-dependent inhibition”.

And the “lowest concentration that potentiated levofloxacin eight-fold” value ([7]; strain DA7232)?
Its value is 3.13 µg/mL.

With `NCCC[C@H](N)CNC(=O)c1cc2ccc(-c3ccc(F)cc3)cc2[nH]1` [TXA01182] as the molecule, how does the “Frequency of resistance, Levofloxacin (4 μg/mL) + TXA01182 ([…])” value (P. aeruginosa ATCC 27853 [4]; levofloxacin 4 μg/mL + EPI […]) read?
The value was <3.33 × 10^−9.

How did the MIC (P. aeruginosa ATCC 27853 [2]; ATCC27853, read-out: Antibiotic MIC in Presence of TXA09155 at a Concentration of 0) turn out when `C[C@H]1COc2c(N3CCN(C)CC3)c(F)cc3c(=O)c(C(=O)O)cn1c23` [Levofloxacin] was run?
The MIC was 1 mg/L.

What about the MIC (P. aeruginosa ATCC 27853 [2]; ATCC27853, read-out: MICs, Lack of EPI) of the same molecule?
The MIC was 1 mg/L.

And the “Antibiotic MIC in Presence of TXA09155 at a Concentration of 3.13” value (P. aeruginosa ATCC 27853 [2]; TXA09155 3.13 μg/mL)?
Its value is 1 mg/L.

What about the “Antibiotic MIC in Presence of TXA09155 at a Concentration of 25” value (P. aeruginosa ATCC 27853 [2]; TXA09155 25 μg/mL) of the same molecule?
Its value is 0.063 mg/L.

What about the “% R (percent resistant per breakpoints)” value ([3]; LVX ≤1S 2I ≥4R, n: 300) of the same molecule?
The value was 22%.

And the “Cumulative Susceptibility % Strains at 0.5” value ([3]; concentration 0.5 µg/ml, n: 300)?
Its value is 60%.

And the “Cumulative Susceptibility % Strains at 1” value ([3]; n: 300)?
Its value is 69%.

What about the “Cumulative Susceptibility % Strains at 2” value ([3]; n: 300) of the same molecule?
Its value is 78%.

What about the “Cumulative Susceptibility % Strains at 4” value ([3]; n: 300) of the same molecule?
Its value is 83%.

What about the “Cumulative Susceptibility % Strains at 8” value ([3]; n: 300) of the same molecule?
Its value is 84%.

What about the “Cumulative Susceptibility % Strains at 16” value ([3]; n: 300) of the same molecule?
The value was 89%.

What about the “Cumulative Susceptibility % Strains at 32” value ([3]; n: 300) of the same molecule?
Its value is 95%.

And the “Cumulative Susceptibility % Strains at >32” value ([3]; n: 300)?
Its value is 100%.

And the “Cumulative Susceptibility % Strains at 0.06” value ([3]; concentration column 0.06 µg/ml, n: 300)?
The value was 1%.

And the MIC50 [3, 9]?
The MIC50 was 0.5 mg/L.

And the MIC90 [3, 9]?
The MIC90 was 32 mg/L.

What about the MIC ([7]; Pseudomonas aeruginosa, read-out: levofloxacin MIC in the presence of […] TXA09155) of the same molecule?
Its MIC is 1 mg/L.

And the “Levofloxacin MIC” value ([7]; levofloxacin alone, strain DA7232)?
The value was 256 mg/L.

From publication PMC9220351, “Evaluation of a Conformationally Constrained Indole Carboxamide as a Potential Efflux Pump Inhibitor in Pseudomonas aeruginosa” (Antibiotics, 2022)
